Experimental data as given in patent US10076116B2, “N-cycloalkyl-N-(biheterocyclymethylene)-(thio)carboxamide derivatives” (BAYER CROPSCIENCE AKTIENGESELLSCHAFT, priority 2013, dated 2018).

Experiments:
Pyrenophora teres = test: In vivo preventive test on Pyrenophora teres (net blotch on barley); conditions: for efficacy: 500 ppm of active ingredient, barley plants, evaluated 14 days after inoculation; for Efficacy (Table D1): dose 500 ppm, barley
Description: Example D: In Vivo Preventive Test on Pvrenophora Teres (Net Blotch on Barley) Solvent: 5% by volume of Dimethyl sulfoxide • 10% by volume of Acetone Emulsifier: 1 μL of TWEEN® 80 per mg of active ingredient The active ingredients are made soluble and homogenized in a mixture of Dimethyl sulfoxide/Acetone/TWEEN® 80 and then diluted in water to the desired concentration. The young plants of barley are treated by spraying the active ingredient prepared as described above. Control plants are treated only with an aqueous solution of Acetone/Dimethyl sulfoxide/TWEEN® 80. After 24 hours, the plants are contaminated by spraying the leaves with an aqueous suspension of Pyrenophora teres spores. The contaminated barley plants are incubated for 48 hours at 20° C. and at 100% relative humidity and then for 12 days at 20° C. and at 70-80% relative humidity. The test is evaluated 14 days after the inoculation. 0% means an efficacy which corresponds to that of the control plants while an efficacy of 100% means that no disease is observed.

Alternaria brassicae = test: In vivo preventive test on Alternaria brassicae (leaf spot on radish); conditions: for Efficacy (Table A2) / Efficacy (Table A1): dose 500 ppm, radish, 6 days after inoculation; for efficacy: 500 ppm of active ingredient, radish plants sprayed 24 hours before inoculation, evaluated 6 days after inoculation
Description: Example A: In Vivo Preventive Test on Alternaria brassicae (Leaf Spot on Radish) Solvent: 5% by volume of Dimethyl sulfoxide • 10% by volume of Acetone Emulsifier: 1 μL of TWEEN® 80 (Polyoxyethylene (20) sorbitan monooleate) per mg of active ingredient The active ingredients are made soluble and homogenized in a mixture of Dimethyl sulfoxide/Acetone/TWEEN® 80 and then diluted in water to the desired concentration. The young plants of radish are treated by spraying the active ingredient prepared as described above. Control plants are treated only with an aqueous solution of Acetone/Dimethyl sulfoxide/TWEEN® 80. After 24 hours, the plants are contaminated by spraying the leaves with an aqueous suspension of Alternaria brassicae spores. The contaminated radish plants are incubated for 6 days at 20° C. and at 100% relative humidity. The test is evaluated 6 days after the inoculation. 0% means an efficacy which corresponds to that of the control plants while an efficacy of 100% means that no disease is observed.

[1] = log P by HPLC on reversed-phase column (C 18), EEC Directive 79/831 Annex V.A8; format: physicochemical; conditions: HPLC C 18, 40° C., 0.1% aqueous formic acid and acetonitrile, gradient 10% to 90% acetonitrile
Description: In table 1, the log P values were determined in accordance with EEC Directive 79/831 Annex V.A8 by HPLC (High Performance Liquid Chromatography) on a reversed-phase column (C 18), using the method described below: Temperature: 40° C.; Mobile phases: 0.1% aqueous formic acid and acetonitrile; linear gradient from 10% acetonitrile to 90% acetonitrile. Calibration was carried out using unbranched alkan-2-ones (comprising 3 to 16 carbon atoms) with known log P values (determination of the log P values by the retention times using linear interpolation between two successive alkanones). lambda-max-values were determined using UV-spectra from 200 nm to 400 nm and the peak values of the chromatographic signals.

Uromyces appendiculatus = test: In vivo preventive test on Uromyces appendiculatus (bean rust)
Description: Example G: In Vivo Preventive Test on Uromvces Appendiculatus (Bean Rust) Solvent: 5% by volume of Dimethyl sulfoxide • 10% by volume of Acetone Emulsifier: 1 μL of TWEEN® 80 per mg of active ingredient The active ingredients are made soluble and homogenized in a mixture of Dimethyl sulfoxide/Acetone/TWEEN® 80 and then diluted in water to the desired concentration. The young plants of bean are treated by spraying the active ingredient prepared as described above. Control plants are treated only with an aqueous solution of Acetone/Dimethyl sulfoxide/TWEEN® 80. After 24 hours, the plants are contaminated by spraying the leaves with an aqueous suspension of Uromyces appendiculatus spores. The contaminated bean plants are incubated for 24 hours at 20° C. and at 100% relative humidity and then for 10 days at 20° C. and at 70-80% relative humidity. The test is evaluated 11 days after the inoculation. 0% means an efficacy which corresponds to that of the control plants while an efficacy of 100% means that no disease is observed.

Botrytis cinerea = test: In vivo preventive test on Botrytis cinerea (grey mould); conditions: gherkin
Description: Example B: In Vivo Preventive Test Botrvtis Cinerea (Grey Mould) Solvent: 5% by volume of Dimethyl sulfoxide • 10% by volume of Acetone Emulsifier: 1 μL of TWEEN® 80 per mg of active ingredient The active ingredients are made soluble and homogenized in a mixture of Dimethyl sulfoxide/Acetone/TWEEN® 80 and then diluted in water to the desired concentration. The young plants of gherkin are treated by spraying the active ingredient prepared as described above. Control plants are treated only with an aqueous solution of Acetone/Dimethyl sulfoxide/TWEEN® 80. After 24 hours, the plants are contaminated by spraying the leaves with an aqueous suspension of Botrytis cinerea spores. The contaminated gherkin plants are incubated for 4 to 5 days at 17° C. and at 90% relative humidity. The test is evaluated 4 to 5 days after the inoculation. 0% means an efficacy which corresponds to that of the control plants while an efficacy of 100% means that no disease is observed.

Puccinia recondita = test: In vivo preventive test on Puccinia recondita (brown rust on wheat); conditions: wheat, compounds of this patent
Description: Example C: In Vivo Preventive Test on Puccinia recondita (Brown Rust on Wheat) […]
The young plants of wheat are treated by spraying the active ingredient prepared as described above. […]
After 24 hours, the plants are contaminated by spraying the leaves with an aqueous suspension of Puccinia recondita spores. The contaminated wheat plants are incubated for 24 hours at 20° C. and at 100% relative humidity and then for 10 days at 20° C. and at 70-80% relative humidity.
The test is evaluated 11 days after the inoculation. 0% means an efficacy which corresponds to that of the control plants while an efficacy of 100% means that no disease is observed.

Compound | Efficacy (Table D1) (Pyrenophora teres) | Efficacy (Table A2) (Alternaria brassicae) | logP [1] | Efficacy (Table G1) (Uromyces appendiculatus; dose 100 ppm) | Efficacy (Table G1) (Uromyces appendiculatus; dose 500 ppm) | Efficacy (Table B1) (Botrytis cinerea; dose 100 ppm) | Efficacy (Table B1) (Botrytis cinerea; dose 500 ppm) | Efficacy (Table A1) (Alternaria brassicae) | further results
COc1cccc(-c2c(CN(C(=O)c3c(C(F)F)nn(C)c3F)C3CC3)sc3ccccc23)n1 [CMP5, N-cyclopropyl-3-(difluoromethyl)-5-fluoro-N-{[3-(6-methoxypyridin-2-yl)-1-benzothiophen-2-yl]methyl}-1-methyl-1H-pyrazole-4-carboxamide] | 0% | 0% | – | – | – | – | – | – | efficacy (Pyrenophora teres): no protection
Cn1nc(C(F)F)c(C(=O)N(Cc2ncc(C(F)(F)F)cc2-c2ccnc3cc(Cl)ccc23)C2CC2)c1F [I.29] | – | – | 3.78 | 67% | 100% | 39% | 83% | – | –
Cn1nc(C(F)F)c(C(=O)N(Cc2sc3ccccc3c2-c2cccnc2)C2CC2)c1F [CMP4, N-cyclopropyl-3-(difluoromethyl)-5-fluoro-1-methyl-N-{[3-(pyridin-3-yl)-1-benzothiophen-2-yl]methyl}-1H-pyrazole-4-carboxamide, reference compound] | – | 43% | – | – | – | – | – | – | –
Cn1nc(C(F)F)c(C(=O)N(Cc2sc3ccccc3c2-c2ccncc2)C2CC2)c1F [CMP6, N-cyclopropyl-3-(difluoromethyl)-5-fluoro-1-methyl-N-{[3-(pyridin-4-yl)-1-benzothiophen-2-yl]methyl}-1H-pyrazole-4-carboxamide] | 0% | – | – | – | – | – | – | – | efficacy (Pyrenophora teres): no protection
Cn1nc(C(F)F)c(C(=O)N(Cc2ncc(C(F)(F)F)cc2-c2cccs2)C2CC2)c1F [I.19] | – | – | 3.89 | 100% | 100% | 100% | 95% | – | –
Cn1nc(C(F)F)c(C(=O)N(Cc2ncc(C(F)(F)F)cc2-c2coc3ccccc23)C2CC2)c1F [I.31] | – | – | 4.16 | 78% | 97% | 100% | 100% | – | Efficacy at 100 ppm (Table C1) (Puccinia recondita; 100 ppm): 88%; Efficacy at 500 ppm (Table C1) (Puccinia recondita; 500 ppm): 94%
Cn1nc(C(F)F)c(C(=O)N(Cc2sc3ccccc3c2-c2coc3ccccc23)C2CC2)c1F [I.53, N-{[3-(1-benzofuran-3-yl)-1-benzothiophen-2-yl]methyl}-N-cyclopropyl-3-(difluoromethyl)-5-fluoro-1-methyl-1H-pyrazole-4-carboxamide] | 83% | 100% | – | – | – | – | – | – | chromatographic logP ([1]; reversed-phase HPLC column (C 18)): 4.61; efficacy (Alternaria brassicae; listed as 1.53): total protection
Cn1nc(C(F)F)c(C(=O)N(Cc2nn(-c3ccccc3)cc2-c2ccc3c(ccn3C)c2)C2CC2)c1F [I.01] | – | – | 4.16 | – | – | – | – | 71% | –
Cn1nc(C(F)F)c(C(=O)N(Cc2nn(-c3ccccc3)cc2-c2csc3ccccc23)C2CC2)c1F [I.03] | – | – | 4.53 | – | – | – | – | 93% | –
Cn1nc(C(F)F)c(C(=O)N(Cc2nn(-c3ccccc3)cc2-c2cccnc2)C2CC2)c1F [CMP1, N-cyclopropyl-3-(difluoromethyl)-5-fluoro-1-methyl-N-{[1-phenyl-4-(pyridin-3-yl)-1H-pyrazol-3-yl]methyl}-1H-pyrazole-4-carboxamide, reference compound] | – | – | – | – | – | – | – | 0% | efficacy (Alternaria brassicae): no protection
